Results on two compounds are retold here after ChEMBL document CHEMBL1126639, “Centrally acting serotonergic and dopaminergic agents. 2. Synthesis and structure-activity relationships of 2,3,3a,4,9,9a-hexahydro-1H-benz[f]indole derivatives” (J Med Chem, 1993).

For experiment [1], the target named is T1, D(2) dopamine receptor (Homo sapiens, UniProt P14416). Kind of experiment: Binding affinity against [3H]U-86,170-labeled dopamine receptor D2 in cloned CHO cells. In kind it is cell-based.
Experiment [2] concerns Mus musculus. Kind of experiment: Ability to stimulate dopaminergic systems by effect on locomotor activity in reserpinized mice when a dose of 38 micro mol/kg is administered intraperitoneally. The format is functional.
Experiment [3] relates to Mus musculus. Kind of experiment: Ability to stimulate dopaminergic systems by effect on locomotor activity in reserpinized mice when a dose of 0.4 micro mol/kg is administered intraperitoneally. In kind it is functional.
In experiment [4] the test system is Mus musculus. Kind of experiment: Antagonism of apomorphine for 0-10 minutes in reserpinized mice when a dose of 38 micro mol/kg is administered intraperitoneally. In kind it is functional.
Experiment [5] relates to Mus musculus. Description: Antagonism of apomorphine in reserpinized mice when a dose of 3.8 micro mol/kg is administered intraperitoneally. In kind it is functional.
Experiment [6] concerns Mus musculus. Description: Antagonism of apomorphine for 0-10 minutes in reserpinized mice when a dose of 0.4 micro mol/kg is administered intraperitoneally. In kind it is functional.
For experiment [7], the system named is Mus musculus. Description: Antagonism of apomorphine in reserpinized mice when a dose of 38 micro mol/kg is administered intraperitoneally. In kind it is functional.
Experiment [8] concerns Mus musculus. Description: Ability to stimulate dopaminergic systems by effect on locomotor activity in reserpinized mice when a dose of 3.8 micro mol/kg is administered intraperitoneally. In kind it is functional.
Experiment [9] has as its system Rattus norvegicus. Description: Inhibition of firing rates of serotonergic neurons in the dorsal raphe nucleus by intravenous injection in rats. The format is functional. The conditions noted are these: Rattus norvegicus, Dorsal raphe nucleus, iv; read-out: ED50.
For experiment [10], the system named is Mus musculus. Description: Antagonism of apomorphine for 0-10 minutes in reserpinized mice when a dose of 3.8 micro mol/kg is administered intraperitoneally. The format is functional.
Experiment [11] relates to Mus musculus. Description: Antagonism of apomorphine for 10-20 minutes in reserpinized mice when a dose of 38 micro mol/kg is administered intraperitoneally. The format is functional.
The test system of experiment [12] is Mus musculus. Kind of experiment: Antagonism of apomorphine for 10-20 minutes in reserpinized mice when a dose of 3.8 micro mol/kg is administered intraperitoneally. The format is functional.
Experiment [13] concerns Rattus norvegicus. Description: Inhibition of firing rates of dopaminergic neurons in the substantia nigra pars compacta by intravenous injection in rats. The format is functional.
The subject of experiment [14] is Mus musculus. Kind of experiment: Antagonism of apomorphine for 10-20 minutes in reserpinized mice when a dose of 0.4 micro mol/kg is administered intraperitoneally. The format is functional.
The subject of experiment [15] is Mus musculus. Description: Antagonism of apomorphine in reserpinized mice when a dose of 0.4 micro mol/kg is administered intraperitoneally. In kind it is functional.
For experiment [16], the target named is D(2) dopamine receptor (Rattus norvegicus, UniProt P61169). Kind of experiment: Binding affinity for [3H]raclopride-labeled dopamine receptor D2 in rat striatum. The format is tissue-based.
In experiment [17] the test system is Rattus norvegicus. Description: Effect on the synthesis rates of dopamine (DOPA accumulation) in the rat ventral limbic brain region at 3.7 uM/kg. In kind it is functional, Limbic system.
The subject of experiment [18] is Mus musculus. Kind of experiment: Ability to stimulate dopaminergic systems by effect on locomotor activity in reserpinized mice when a dose of 3.7 micro mol/kg is administered intraperitoneally. In kind it is functional.
Experiment [19] is filed under the species Rattus norvegicus. Kind of experiment: Effect on the synthesis rates of serotonin (5-HTP accumulation) in the rat ventral limbic brain region […]. The format is functional, Limbic system.
The subject of experiment [20] is Mus musculus. Kind of experiment: Antagonism of apomorphine for 0-10 minutes in reserpinized mice when a dose of 37 micro mol/kg is administered intraperitoneally. The format is functional.
Experiment [21] has as its system Rattus norvegicus. Kind of experiment: Inhibition of firing rates of dopaminergic neurons in the substantia nigra pars compacta by intravenous injection in rats. In kind it is functional.
Experiment [22] relates to Mus musculus. Kind of experiment: Ability to stimulate dopaminergic systems by effect on locomotor activity in reserpinized mice when a dose of 37 micro mol/kg is administered intraperitoneally. In kind it is functional.
Experiment [23] concerns Mus musculus. Description: Antagonism of apomorphine in reserpinized mice when a dose of 3.7 micro mol/kg is administered intraperitoneally. The format is functional.
In experiment [24] the test system is Mus musculus. Kind of experiment: Antagonism of apomorphine in reserpinized mice when a dose of 37 micro mol/kg is administered intraperitoneally. The format is functional.
Experiment [25] has as its system Mus musculus. Kind of experiment: Antagonism of apomorphine for 0-10 minutes in reserpinized mice when a dose of 3.7 micro mol/kg is administered intraperitoneally. In kind it is functional.
Experiment [26] concerns Mus musculus. Kind of experiment: Antagonism of apomorphine for 10-20 minutes in reserpinized mice when a dose of 37 micro mol/kg is administered intraperitoneally. In kind it is functional.
For experiment [27], the target named is T1, D(2) dopamine receptor. Description: Intrinsic activity from GTP shift using CHO cell membranes expressing dopamine receptor D2. The format is functional.
Experiment [28] relates to Mus musculus. Description: Antagonism of apomorphine for 10-20 minutes in reserpinized mice when a dose of 3.7 micro mol/kg is administered intraperitoneally. The format is functional.

What is called Ki is the equilibrium dissociation constant of an inhibitor or competing ligand from its target. For orientation: ED50 means the midpoint of the dose-response relation.

T1 sequence (P14416 whole entry): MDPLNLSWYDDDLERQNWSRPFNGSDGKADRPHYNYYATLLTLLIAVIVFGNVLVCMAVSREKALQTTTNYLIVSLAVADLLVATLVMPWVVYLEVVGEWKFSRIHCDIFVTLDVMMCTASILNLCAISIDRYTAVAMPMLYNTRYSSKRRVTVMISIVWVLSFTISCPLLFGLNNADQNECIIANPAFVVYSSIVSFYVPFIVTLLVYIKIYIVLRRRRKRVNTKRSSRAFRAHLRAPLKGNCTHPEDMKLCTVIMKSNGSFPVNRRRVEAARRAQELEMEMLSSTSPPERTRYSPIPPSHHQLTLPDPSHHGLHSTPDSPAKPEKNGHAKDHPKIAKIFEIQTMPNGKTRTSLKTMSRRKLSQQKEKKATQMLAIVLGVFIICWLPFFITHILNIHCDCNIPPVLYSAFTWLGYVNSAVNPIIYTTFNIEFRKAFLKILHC
D(2) dopamine receptor (Rattus norvegicus, UniProt P61169), sequence (P61169 whole entry): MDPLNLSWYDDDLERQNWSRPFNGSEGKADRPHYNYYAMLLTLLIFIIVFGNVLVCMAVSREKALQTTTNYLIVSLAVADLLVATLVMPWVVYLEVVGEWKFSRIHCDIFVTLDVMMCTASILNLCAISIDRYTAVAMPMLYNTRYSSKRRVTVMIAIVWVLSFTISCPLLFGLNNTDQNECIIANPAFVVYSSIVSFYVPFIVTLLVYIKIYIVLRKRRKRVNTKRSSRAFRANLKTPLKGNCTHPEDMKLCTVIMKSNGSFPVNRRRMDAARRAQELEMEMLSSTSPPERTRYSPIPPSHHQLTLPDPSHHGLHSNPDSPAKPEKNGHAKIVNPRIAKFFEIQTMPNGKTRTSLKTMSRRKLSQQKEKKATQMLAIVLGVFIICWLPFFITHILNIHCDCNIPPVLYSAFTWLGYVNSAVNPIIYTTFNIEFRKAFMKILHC

Consider `C=CCN1CC[C@@H]2Cc3c(O)cccc3C[C@H]21` (racemic), for which the values for the Ki at D(2) dopamine receptor [1] and at D(2) dopamine receptor [16] were 235 nM and 47 nM, respectively. Besides, the Locomotor activity with Mus musculus [2] is on record as 1783; in the experiment on Mus musculus [3] it was 450; in the experiment with Mus musculus [4], 55; in the experiment on Mus musculus [5] it was 133; in the experiment with Mus musculus [6], 61; in the experiment with Mus musculus [7] it was 123. The Locomotor activity with Mus musculus [8] was 1409; in the experiment on Mus musculus [10] it was 40; in the experiment with Mus musculus [11], 46; with Mus musculus [12], 54; with Mus musculus [14], 77; in the experiment with Mus musculus [15], 108. Further, the ED50 in the experiment on Rattus norvegicus [9] worked out at 0.35 µmol/kg; in the experiment on Rattus norvegicus [13] it was 0.007 µmol/kg.
Take `CCCN1CC[C@H]2Cc3c(O)cccc3C[C@@H]21`: the results for the Ki at D(2) dopamine receptor [1] and on D(2) dopamine receptor [16] were 917 nM and greater than 630 nM, respectively. Also, the results for the Control in the experiment with Rattus norvegicus [17] and in the experiment listed under Rattus norvegicus [19] were 20% and 12%, respectively. The Locomotor activity is 1 with Mus musculus [18]; 45 in the experiment with Mus musculus [3]; 84 with Mus musculus [20]; 121 with Mus musculus [6]; 113 in the experiment with Mus musculus [22]; 86 in the experiment on Mus musculus [23]. Besides, the Locomotor activity with Mus musculus [14] is reported as 119; in the experiment with Mus musculus [24] it was 77; in the experiment with Mus musculus [25], 109; in the experiment on Mus musculus [15] it was 81; in the experiment on Mus musculus [26], 103; with Mus musculus [28] it was 119. Moreover, the 50% effective dose (ED50) in the experiment on Rattus norvegicus [21] and in the experiment with Rattus norvegicus [13] was greater than 3.73 µmol/kg throughout. For the same compound, the Intrinsic activity on D(2) dopamine receptor [27] worked out at 18%.
